Reference: patent publication US12077503B2, “Substituted cyclic amides and their use as herbicides” (FMC CORPORATION, priority 2015, dated 2024)

Legend:
Type in all cases: in vivo
[1] = system: ivy-leaved morning glory (Ipomoea hederacea); assay: Test G Post-Emergence Protocol; settings: Ipomoea, post-emergence, 312 h; for pest or weed control at 15.625 g/ha: 15.625 g ai/ha, evaluated after 13 days (100=total damage to plant; 0=no damage to plant), read-out: Morningglory, Ivy-leaved damage rating; for pest or weed control at 62.5 g/ha: 62.5 g ai/ha, read-out: Morningglory, Ivy-leaved damage rating (100=total damage to plant; 0=no damage to plant); for pest or weed control at 62.5 g/ha / pest or weed control at 250 g/ha: evaluated after 13 days; for pest or weed control at 250 g/ha: 250 g ai/ha, read-out: damage to plant, Morningglory, Ivy-leaved (100=total damage to plant; 0=no damage to plant)
How it was run: (§1)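 Post-emergence herbicidal damage, scored visually 0–100 at 13 days. Application at 15.625, 62.5 or 250 g/ha onto 8-day-old plants grown under glasshouse control.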

[2] = system: barnyardgrass (Echinochloa crus-galli); assay: Test G Post-Emergence Protocol; settings: Echinochloa crus-galli, post-emergence, 312 h; for pest or weed control at 15.625 g/ha: 15.625 g ai/ha, evaluated after 13 days (100=total damage to plant; 0=no damage to plant), read-out: Barnyardgrass damage rating; for pest or weed control at 62.5 g/ha: 62.5 g ai/ha, read-out: Barnyardgrass damage rating (100=total damage to plant; 0=no damage to plant); for pest or weed control at 62.5 g/ha / pest or weed control at 250 g/ha: evaluated after 13 days; for pest or weed control at 250 g/ha: 250 g ai/ha, read-out: damage to plant, Barnyardgrass (100=total damage to plant; 0=no damage to plant)
How it was run: as §1

[3] = system: giant foxtail (Setaria faberi); assay: Test G Post-Emergence Protocol; settings: Setaria faberi, post-emergence, 312 h; for pest or weed control at 15.625 g/ha: 15.625 g ai/ha, evaluated after 13 days (100=total damage to plant; 0=no damage to plant), read-out: Foxtail, Giant damage rating; for pest or weed control at 62.5 g/ha: 62.5 g ai/ha, read-out: Foxtail, Giant damage rating (100=total damage to plant; 0=no damage to plant); for pest or weed control at 62.5 g/ha / pest or weed control at 250 g/ha: evaluated after 13 days; for pest or weed control at 250 g/ha: 250 g ai/ha, read-out: damage to plant, Foxtail, Giant (100=total damage to plant; 0=no damage to plant)
How it was run: as §1

corn (Zea mays) [4] = assay: Test G Post-Emergence Protocol; settings: Zea mays, post-emergence, 312 h; for plant injury at 15.625 g/ha: 15.625 g ai/ha, evaluated after 13 days (100=total damage to plant; 0=no damage to plant), read-out: Corn damage rating; for plant injury at 62.5 g/ha: 62.5 g ai/ha, read-out: Corn damage rating (100=total damage to plant; 0=no damage to plant); for plant injury at 62.5 g/ha / plant injury at 250 g/ha: evaluated after 13 days; for plant injury at 250 g/ha: 250 g ai/ha, read-out: damage to plant, Corn (100=total damage to plant; 0=no damage to plant)
How it was run: as §1

[5] = system: velvetleaf (Abutilon theophrasti); assay: Test G Post-Emergence Protocol; settings: Abutilon theophrasti, post-emergence, 312 h; for pest or weed control at 15.625 g/ha: 15.625 g ai/ha, evaluated after 13 days (100=total damage to plant; 0=no damage to plant), read-out: Velvetleaf damage rating; for pest or weed control at 62.5 g/ha: 62.5 g ai/ha, read-out: Velvetleaf damage rating (100=total damage to plant; 0=no damage to plant); for pest or weed control at 62.5 g/ha / pest or weed control at 250 g/ha: evaluated after 13 days; for pest or weed control at 250 g/ha: 250 g ai/ha, read-out: damage to plant, Velvetleaf (100=total damage to plant; 0=no damage to plant)
How it was run: as §1

[6] = system: redroot pigweed (Amaranthus retroflexus); assay: Test G Post-Emergence Protocol; settings: Amaranthus retroflexus, post-emergence, 312 h; for pest or weed control at 15.625 g/ha: 15.625 g ai/ha, evaluated after 13 days (100=total damage to plant; 0=no damage to plant), read-out: Pigweed, Redroot damage rating; for pest or weed control at 62.5 g/ha: 62.5 g ai/ha, read-out: Pigweed, Redroot damage rating (100=total damage to plant; 0=no damage to plant); for pest or weed control at 62.5 g/ha / pest or weed control at 250 g/ha: evaluated after 13 days; for pest or weed control at 250 g/ha: 250 g ai/ha, read-out: damage to plant, Pigweed, Redroot (100=total damage to plant; 0=no damage to plant)
How it was run: as §1

[7] = system: ivy-leaved morning glory (Ipomoea hederacea); assay: Test G Pre-Emergence Protocol; settings: Ipomoea, pre-emergence, 312 h, evaluated after 13 days; for pest or weed control at 15.625 g/ha: 15.625 g ai/ha, read-out: Morning-glory, Ivy-leaved damage rating (100=total damage to plant; 0=no damage to plant); for pest or weed control at 62.5 g/ha: 62.5 g ai/ha, 100=total damage to plant, 0=no damage to plant, read-out: plant damage rating, Morningglory, Ivy-leaved; for pest or weed control at 250 g/ha: 250 g ai/ha, read-out: Morningglory, Ivy-leaved damage rating (100=total damage to plant; 0=no damage to plant)
How it was run: (§2)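 Seeds were sown in standard soil and kept one day in a glasshouse (24/16° C day/night, 14 h light, 65% humidity), then sprayed with compound in acetone/water (50:50) containing 0.5% Tween 20 at 15.625, 62.5 or 250 g/ha. Damage was scored after 13 days (0 = none, 100 = total).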

[8] = system: barnyardgrass (Echinochloa crus-galli); assay: Test G Pre-Emergence Protocol; settings: Echinochloa crus-galli, pre-emergence, 312 h, evaluated after 13 days; for pest or weed control at 15.625 g/ha: 15.625 g ai/ha, read-out: Barnyard grass damage rating (100=total damage to plant; 0=no damage to plant); for pest or weed control at 62.5 g/ha: 62.5 g ai/ha, 100=total damage to plant, 0=no damage to plant, read-out: plant damage rating, Barnyardgrass; for pest or weed control at 250 g/ha: 250 g ai/ha, read-out: Barnyardgrass damage rating (100=total damage to plant; 0=no damage to plant)
How it was run: as §2

[9] = system: giant foxtail (Setaria faberi); assay: Test G Pre-Emergence Protocol; settings: Setaria faberi, pre-emergence, 312 h, evaluated after 13 days; for pest or weed control at 15.625 g/ha: 15.625 g ai/ha; for pest or weed control at 15.625 g/ha / pest or weed control at 250 g/ha: read-out: Foxtail, Giant damage rating (100=total damage to plant; 0=no damage to plant); for pest or weed control at 62.5 g/ha: 62.5 g ai/ha, 100=total damage to plant, 0=no damage to plant, read-out: plant damage rating, Foxtail, Giant; for pest or weed control at 250 g/ha: 250 g ai/ha
How it was run: as §2

corn (Zea mays) [10] = assay: Test G Pre-Emergence Protocol; settings: Zea mays, pre-emergence, 312 h, evaluated after 13 days; for plant injury at 15.625 g/ha: 15.625 g ai/ha; for plant injury at 15.625 g/ha / plant injury at 250 g/ha: read-out: Corn damage rating (100=total damage to plant; 0=no damage to plant); for plant injury at 62.5 g/ha: 62.5 g ai/ha, 100=total damage to plant, 0=no damage to plant, read-out: plant damage rating, Corn; for plant injury at 250 g/ha: 250 g ai/ha
How it was run: as §2

[11] = system: velvetleaf (Abutilon theophrasti); assay: Test G Pre-Emergence Protocol; settings: Abutilon theophrasti, pre-emergence, 312 h, evaluated after 13 days; for pest or weed control at 15.625 g/ha: 15.625 g ai/ha; for pest or weed control at 15.625 g/ha / pest or weed control at 250 g/ha: read-out: Velvetleaf damage rating (100=total damage to plant; 0=no damage to plant); for pest or weed control at 62.5 g/ha: 62.5 g ai/ha, 100=total damage to plant, 0=no damage to plant, read-out: plant damage rating, Velvetleaf; for pest or weed control at 250 g/ha: 250 g ai/ha
How it was run: as §2

[12] = system: redroot pigweed (Amaranthus retroflexus); assay: Test G Pre-Emergence Protocol; settings: Amaranthus retroflexus, pre-emergence, 312 h, evaluated after 13 days; for pest or weed control at 15.625 g/ha: 15.625 g ai/ha; for pest or weed control at 15.625 g/ha / pest or weed control at 250 g/ha: read-out: Pigweed, Redroot damage rating (100=total damage to plant; 0=no damage to plant); for pest or weed control at 62.5 g/ha: 62.5 g ai/ha, 100=total damage to plant, 0=no damage to plant, read-out: plant damage rating, Pigweed, Redroot; for pest or weed control at 250 g/ha: 250 g ai/ha
How it was run: as §2

Structure (SMILES) | pest or weed control at 15.625 g/ha [1] | pest or weed control at 62.5 g/ha [1] | pest or weed control at 250 g/ha [1] | pest or weed control at 15.625 g/ha [2] | pest or weed control at 62.5 g/ha [2] | pest or weed control at 250 g/ha [2] | pest or weed control at 15.625 g/ha [3] | pest or weed control at 62.5 g/ha [3] | pest or weed control at 250 g/ha [3] | plant injury at 15.625 g/ha (corn (Zea mays) [4]) | plant injury at 62.5 g/ha (corn (Zea mays) [4]) | plant injury at 250 g/ha (corn (Zea mays) [4]) | pest or weed control at 15.625 g/ha [5] | pest or weed control at 62.5 g/ha [5] | pest or weed control at 250 g/ha [5] | pest or weed control at 15.625 g/ha [6] | pest or weed control at 62.5 g/ha [6] | pest or weed control at 250 g/ha [6] | pest or weed control at 15.625 g/ha [7] | pest or weed control at 62.5 g/ha [7] | also measured
CN1C[C@@H](c2ccc(C(F)(F)F)cc2)[C@@](O)(C(=O)Nc2cccc(F)c2F)C1=O (racemic) [Compound 1403] | 0% | 0% | 0% | 0% | 0% | 10% | 0% | 0% | 0% | 10% | 10% | 20% | 0% | 0% | 0% | 10% | 10% | 10% | 0% | 0% | pest or weed control at 250 g/ha [7]: 0%; pest or weed control at 15.625 g/ha [8]: 0%; pest or weed control at 62.5 g/ha [8]: 0%; pest or weed control at 250 g/ha [8]: 0%; pest or weed control at 15.625 g/ha [9]: 0%; pest or weed control at 62.5 g/ha [9]: 0%; pest or weed control at 250 g/ha [9]: 0%; plant injury at 15.625 g/ha (corn (Zea mays) [10]): 0%; plant injury at 62.5 g/ha (corn (Zea mays) [10]): 0%; plant injury at 250 g/ha (corn (Zea mays) [10]): 0%; pest or weed control at 15.625 g/ha [11]: 0%; pest or weed control at 62.5 g/ha [11]: 0%; pest or weed control at 250 g/ha [11]: 0%; pest or weed control at 15.625 g/ha [12]: 0%; pest or weed control at 62.5 g/ha [12]: 0%; pest or weed control at 250 g/ha [12]: 0%
CN1C[C@@H](c2ccnc(C(F)(F)F)c2)[C@H](C(=O)Nc2cccc(F)c2F)C1=O (racemic) [Compound 1585] | 20% | 30% | 70% | 70% | 80% | 70% | 60% | 60% | 70% | 30% | 60% | 80% | 0% | 20% | 30% | 0% | 20% | 30% | 0% | 30% | pest or weed control at 250 g/ha [7]: 80%; pest or weed control at 15.625 g/ha [8]: 70%; pest or weed control at 62.5 g/ha [8]: 90%; pest or weed control at 250 g/ha [8]: 90%; pest or weed control at 15.625 g/ha [9]: 70%; pest or weed control at 62.5 g/ha [9]: 80%; pest or weed control at 250 g/ha [9]: 90%; plant injury at 15.625 g/ha (corn (Zea mays) [10]): 0%; plant injury at 62.5 g/ha (corn (Zea mays) [10]): 80%; plant injury at 250 g/ha (corn (Zea mays) [10]): 80%; pest or weed control at 15.625 g/ha [11]: 0%; pest or weed control at 62.5 g/ha [11]: 0%; pest or weed control at 250 g/ha [11]: 30%; pest or weed control at 15.625 g/ha [12]: 0%; pest or weed control at 62.5 g/ha [12]: 0%; pest or weed control at 250 g/ha [12]: 20%
CN1C[C@@H](c2ccc(C(F)(F)F)cc2)[C@H](C(=O)Nc2ccnc(F)c2)C1=O (racemic) [Compound 1529] | 0% | 0% | 0% | 0% | 0% | 0% | 0% | 0% | 0% | 0% | 0% | 0% | 0% | 0% | 0% | 0% | 0% | 0% | 0% | 0% | pest or weed control at 250 g/ha [7]: 0%; pest or weed control at 15.625 g/ha [8]: 0%; pest or weed control at 62.5 g/ha [8]: 0%; pest or weed control at 250 g/ha [8]: 0%; pest or weed control at 15.625 g/ha [9]: 0%; pest or weed control at 62.5 g/ha [9]: 0%; pest or weed control at 250 g/ha [9]: 0%; plant injury at 15.625 g/ha (corn (Zea mays) [10]): 0%; plant injury at 62.5 g/ha (corn (Zea mays) [10]): 0%; plant injury at 250 g/ha (corn (Zea mays) [10]): 0%; pest or weed control at 15.625 g/ha [11]: 0%; pest or weed control at 62.5 g/ha [11]: 0%; pest or weed control at 250 g/ha [11]: 0%; pest or weed control at 15.625 g/ha [12]: 0%; pest or weed control at 62.5 g/ha [12]: 0%; pest or weed control at 250 g/ha [12]: 0%
